According to ChEMBL document CHEMBL5052830, “Foxm1 inhibitor compositions and methods of using the same” (2021):
Blank lines part the entries; values can stand above or below the compound they belong to. Calls of active or inactive are those of the source. The calls are words filed in the database; no cut-off is given here.

Legend:
[1] = Half-life in female CD-1 mouse at 20 mg/kg, po administered as single dose and measured by LC-MS/MS analysis; format: ADME, organism-based; conditions: in vivo
[2] = AUC (0 to 48 hrs) in female CD-1 mouse at 40 mg/kg, sc administered as single dose and measured by LC-MS/MS analysis; format: ADME, organism-based; design: time < 48 hr, route subcutaneous, dose 40 mg/kg; conditions: in vivo
[3] = Half-life in female CD-1 mouse at 40 mg/kg, sc administered as single dose and measured by LC-MS/MS analysis; format: ADME, organism-based; conditions: in vivo
[4] = Toxicity in human DT-22-Luc cells xenografted female NSG mouse assessed as as effect on body weight at 20 mg/kg, sc administered daily until day 20 and followed by 10 mg/kg every other day; format: organism-based; conditions: in vivo
[5] = tested on: DT-22; assay: Antitumor activity in human DT-22-Luc cells xenografted female NSG mouse assessed as reduction in tumor growth at 20 mg/kg, sc administered daily until day 20 and followed by 10 mg/kg every other day; format: functional, organism-based
[6] = Cmax in mouse at 20 mg/kg, sc measured by LC-MS/MS analysis; format: ADME, organism-based; design: route subcutaneous, dose 20 mg/kg; conditions: in vivo
[7] = molecular target: T1, Forkhead box protein M1 (Homo sapiens) (UniProt Q08050); assay: Inhibition of FOXM1 in human ER-negative DT-22 cells at 8 uM assessed as reduction in AURKB expression measured by qRT-PCR method; format: cell-based
T1 sequence (whole entry): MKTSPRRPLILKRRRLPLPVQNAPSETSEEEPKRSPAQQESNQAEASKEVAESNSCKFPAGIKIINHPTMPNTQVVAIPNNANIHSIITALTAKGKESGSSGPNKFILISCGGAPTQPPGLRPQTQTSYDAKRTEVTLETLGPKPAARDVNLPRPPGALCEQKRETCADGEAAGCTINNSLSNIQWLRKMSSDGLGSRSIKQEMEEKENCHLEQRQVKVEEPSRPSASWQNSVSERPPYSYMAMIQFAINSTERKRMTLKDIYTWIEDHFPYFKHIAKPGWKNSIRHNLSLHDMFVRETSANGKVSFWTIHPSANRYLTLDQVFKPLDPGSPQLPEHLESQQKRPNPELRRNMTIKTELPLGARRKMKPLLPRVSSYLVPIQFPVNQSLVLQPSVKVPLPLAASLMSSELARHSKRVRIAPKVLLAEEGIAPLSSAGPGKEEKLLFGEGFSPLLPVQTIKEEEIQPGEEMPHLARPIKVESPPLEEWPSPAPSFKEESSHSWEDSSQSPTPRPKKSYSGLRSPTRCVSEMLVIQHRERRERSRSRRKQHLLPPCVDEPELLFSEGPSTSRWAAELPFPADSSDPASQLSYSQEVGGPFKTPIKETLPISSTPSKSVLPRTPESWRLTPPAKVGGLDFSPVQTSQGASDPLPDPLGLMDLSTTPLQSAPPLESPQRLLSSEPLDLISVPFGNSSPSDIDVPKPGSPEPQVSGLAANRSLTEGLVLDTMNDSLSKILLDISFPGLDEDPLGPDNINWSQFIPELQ

[8] = molecular target: T1, Forkhead box protein M1 (Homo sapiens); assay: Inhibition of FOXM1 in human ER-positive MCF7 cells at 8 uM assessed as reduction in CCNB1 expression measured by qRT-PCR method; format: cell-based
[9] = molecular target: T1, Forkhead box protein M1 (Homo sapiens); assay: Inhibition of FOXM1 in human ER-negative DT-22 cells at 8 uM assessed as reduction in CCNB1 expression measured by qRT-PCR method; format: cell-based
[10] = AUC in mouse at 20 mg/kg, sc measured by LC-MS/MS analysis; format: ADME, organism-based; design: dose 20 mg/kg; conditions: in vivo
[11] = molecular target: T1, Forkhead box protein M1 (Homo sapiens); assay: Inhibition of FOXM1 in human ER-positive MCF7 cells at 8 uM assessed as reduction in PLK1 expression measured by qRT-PCR method; format: cell-based
[12] = molecular target: T1, Forkhead box protein M1 (Homo sapiens); assay: Inhibition of FOXM1 in human ER-positive MCF7 cells at 8 uM assessed as reduction in AURKB expression measured by qRT-PCR method; format: cell-based
[13] = molecular target: T1, Forkhead box protein M1 (Homo sapiens); assay: Inhibition of FOXM1 in human ER-negative DT-22 cells at 8 uM assessed as reduction in PLK1 expression measured by qRT-PCR method; format: cell-based
[14] = molecular target: T1, Forkhead box protein M1 (Homo sapiens); assay: Inhibition of FOXM1 in human ER-positive MCF7 cells at 8 uM assessed as reduction in FOXM1C expression measured by qRT-PCR method; format: cell-based
[15] = molecular target: T1, Forkhead box protein M1 (Homo sapiens); assay: Inhibition of FOXM1 in human ER-negative DT-22 cells at 8 uM assessed as reduction in FOXM1C expression measured by qRT-PCR method; format: cell-based
[16] = molecular target: T1, Forkhead box protein M1 (Homo sapiens); assay: Inhibition of FOXM1 in human ER-positive MCF7 cells at 8 uM assessed as increase in ATF3 expression measured by qRT-PCR method; format: cell-based
[17] = Half-life in mouse at 20 mg/kg, sc measured by LC-MS/MS analysis; format: ADME, organism-based; conditions: in vivo
[18] = molecular target: T1, Forkhead box protein M1 (Homo sapiens); assay: Inhibition of FOXM1 in human ER-negative DT-22 cells at 8 uM assessed as increase in ATF3 expression measured by qRT-PCR method; format: cell-based
[19] = tested on: DT-22; assay: Antitumor activity in human DT-22-Luc cells xenografted female NSG mouse assessed as reduction in tumor growth at 2 to 6 mg/kg, sc; format: functional, organism-based; conditions: dose 2-6 mg/kg
[20] = Toxicity in human DT-22-Luc cells xenografted female NSG mouse assessed as as effect on body weight at 2 to 6 mg/kg, sc; format: organism-based; conditions: in vivo, dose 2-6 mg/kg
[21] = Half-life in female CD-1 mouse at 60 mg/kg, sc administered as single dose and measured by LC-MS/MS analysis; format: ADME, organism-based; conditions: in vivo
[22] = tested on: DT-22; assay: Antitumor activity in human DT-22 cells xenografted NSG mouse assessed as reduction in FOXM1C expression at 5 to 10 mg/kg, sc administered daily until day 21 and then every other day; format: functional, organism-based; conditions: dose 5-10 mg/kg
[23] = tested on: DT-22; assay: Antitumor activity in human DT-22 cells xenografted NSG mouse assessed as reduction in CENPF expression at 5 to 10 mg/kg, sc administered daily until day 21 and then every other day; format: functional, organism-based; conditions: dose 5-10 mg/kg
[24] = tested on: DT-22; assay: Antitumor activity in human DT-22 cells xenografted NSG mouse assessed as reduction in tumor growth at 5 to 10 mg/kg, sc administered daily until day 21 and then every other day; format: functional, organism-based; conditions: dose 5-10 mg/kg
[25] = tested on: DT-22; assay: Antitumor activity in human DT-22 cells xenografted NSG mouse assessed as reduction in tumor growth at 40 mg/kg, sc administered daily for 4 days followed by 20 mg/kg every third day until day 13 and followed by 10 mg/kg every third day; format: functional, organism-based; conditions: time 4.0 day
[26] = tested on: MCF-7/TAMR-1; assay: Antiproliferative activity against human MCF-7/TAMR-1 cells measured by WST-1 assay; format: functional, cell-based
[27] = tested on: DT-22; assay: Antitumor activity in human DT-22 cells xenografted NSG mouse assessed as reduction in FOXM1B expression at 5 to 10 mg/kg, sc administered daily until day 21 and then every other day; format: functional, organism-based; conditions: dose 5-10 mg/kg
[28] = tested on: DT-22; assay: Antitumor activity in human DT-22 cells xenografted NSG mouse assessed as reduction in total FOXM1 expression at 5 to 10 mg/kg, sc administered daily until day 21 and then every other day; format: functional, organism-based; conditions: dose 5-10 mg/kg
[29] = molecular target: T1, Forkhead box protein M1 (Homo sapiens); assay: Inhibition of FOXM1 in human ER-negative DT-22 cells at 5 uM assessed as reduction in CCNB1 expression measured by qRT-PCR method; format: cell-based
[30] = molecular target: T1, Forkhead box protein M1 (Homo sapiens); assay: Inhibition of FOXM1 in human ER-positive MCF7 cells at 5 uM assessed as reduction in PLK1 expression measured by qRT-PCR method; format: cell-based
[31] = molecular target: T1, Forkhead box protein M1 (Homo sapiens); assay: Inhibition of FOXM1 in human ER-negative DT-22 cells at 5 uM assessed as reduction in PLK1 expression measured by qRT-PCR method; format: cell-based
[32] = tested on: MCF7; assay: Antitumor activity in human MCF7 cells xenografted ovariectomized NSG mouse assessed as reduction in tumor growth at 100 mg/kg, sc administered daily; format: functional, organism-based
[33] = molecular target: T1, Forkhead box protein M1 (Homo sapiens); assay: Inhibition of FOXM1 in human ER-positive MCF7 cells at 5 uM assessed as reduction in CCNB1 expression measured by qRT-PCR method; format: cell-based
[34] = molecular target: T1, Forkhead box protein M1 (Homo sapiens); assay: Inhibition of FOXM1 in human ER-positive MCF7 cells at 5 uM assessed as increase in ATF3 expression measured by qRT-PCR method; format: cell-based
[35] = molecular target: T1, Forkhead box protein M1 (Homo sapiens); assay: Inhibition of FOXM1 in human ER-negative DT-22 cells at 5 uM assessed as reduction in AURKB expression measured by qRT-PCR method; format: cell-based
[36] = molecular target: T1, Forkhead box protein M1 (Homo sapiens); assay: Inhibition of FOXM1 in human ER-positive MCF7 cells at 5 uM assessed as reduction in FOXM1C expression measured by qRT-PCR method; format: cell-based
[37] = molecular target: T1, Forkhead box protein M1 (Homo sapiens); assay: Inhibition of FOXM1 in human ER-positive MCF7 cells at 5 uM assessed as reduction in AURKB expression measured by qRT-PCR method; format: cell-based
[38] = tested on: DT-22; assay: Antitumor activity in human DT-22 cells xenografted NSG mouse assessed as reduction in tumor growth at 100 mg/kg, po administered daily for 7 days; format: functional, organism-based; conditions: time 7.0 day
[39] = molecular target: T1, Forkhead box protein M1 (Homo sapiens); assay: Inhibition of FOXM1 in human ER-negative DT-22 cells at 5 uM assessed as reduction in FOXM1C expression measured by qRT-PCR method; format: cell-based
[40] = molecular target: T1, Forkhead box protein M1 (Homo sapiens); assay: Inhibition of FOXM1 in human ER-negative DT-22 cells at 5 uM assessed as increase in ATF3 expression measured by qRT-PCR method; format: cell-based

SMILES: Nc1c(C(=O)Nc2ccc(F)cc2)sc2nc(-c3cccs3)cc(C(F)(F)F)c12
Cmax [6]: 40 nM | inhibition [7]: Active | inhibition [8]: Active | inhibition [9]: Active | AUC [10]: 1.2 µM·h | inhibition [11]: Active | inhibition [12]: Active | inhibition [13]: Active | inhibition [14]: Active | inhibition [15]: Active | inhibition [16]: Active | half-life [17]: 1310 min | inhibition [18]: Active

SMILES: C[N+]1(CCCCCCOc2ccc(C(c3ccc(OCCCCCC[N+]4(C)CCCCCC4)cc3)=C3C4C[C@H]5C[C@@H](C4)C[C@H]3C5)cc2)CCCCCC1
Activity [22]: Active | Activity [23]: Active | Activity [24]: Active | Activity [25]: Active | Activity [26]: Active | Activity [27]: Active | Activity [28]: Active

SMILES: C[N+]1(CCCCCCOc2ccc(C(=C3C4CC5CC(C4)CC3C5)c3ccc(OCCCCCC[N+]4(C)CCCC4)cc3)cc2)CCCC1
Activity [25]: Active

SMILES: C[N+]1(CCCCCCOc2ccc(C(c3ccc(OCCCCCC[N+]4(C)CCCCC4)cc3)=C3C4C[C@H]5C[C@@H](C4)C[C@H]3C5)cc2)CCCCC1
Activity [25]: Active

More lines, main results first:

half-life [1]: 2.58 days
SMILES: CCN(CC)CCCCCCOc1ccc(C(c2ccc(OCCCCCCN(CC)CC)cc2)=C2[C@H]3C[C@@H]4C[C@@H](C[C@H]2C4)C3)cc1

AUC(0-t) at 48 h [2]: 150 µM·h | half-life [3]: 2210 min
SMILES: C[n+]1ccn(CCCCCCOc2ccc(C(=C3C4CC5CC(C4)CC3C5)c3ccc(Cl)cc3)cc2)c1.[I-]

half-life [3]: 1890 min
SMILES: C[N+]1(CCCCCCOc2ccc(C(c3ccc(Cl)cc3)=C3C4C[C@H]5C[C@@H](C4)C[C@H]3C5)cc2)CCCC1.[I-]
Activity [4]: Non-Toxic | Activity [5]: Active

half-life [3]: 2320 min
SMILES: CC[N+](C)(CC)CCCCCCOc1ccc(C(c2ccc(OCCCCCC[N+](C)(CC)CC)cc2)=C2C3C[C@H]4C[C@@H](C3)C[C@H]2C4)cc1.[I-].[I-]
Activity [19]: Active | Activity [20]: Non-Toxic

half-life [21]: 2740 min
SMILES: CN1CCN(CCCCCCOc2ccc(C(=C3C4CC5CC(C4)CC3C5)c3ccc(OCCCCCCN4CCN(C)CC4)cc3)cc2)CC1

inhibition [29]: Active | inhibition [30]: Active | inhibition [31]: Active | inhibition [33]: Active | inhibition [34]: Active | inhibition [35]: Active | inhibition [36]: Active | inhibition [37]: Active | inhibition [39]: Active | half-life [3]: 1600 min | inhibition [40]: Active
SMILES: Clc1ccc(C(=C2C3CC4CC(C3)CC2C4)c2ccc(OCCCCCCN3CCCC3)cc2)cc1
Activity [32]: Active | Activity [38]: Active
